Among the data in ChEMBL document CHEMBL3507680, “University of Dundee, Gates Library screen for HepG2 cell viability” are cytotoxicity values, retold here.

This data set is described as follows: Human HepG2 cell viability assay in 384 well format. On the set-up: dose 125 nL, time 70.5 hour; cytotoxicity at 70.5 h: concentration not given beside the values. The format is toxicity, cell-based. Particulars: HepG2 cells, read-out: Inhibition.
`CCCn1nnnc1CN(C)C(C)c1ccc(C)cc1` (stereo not given): the cytotoxicity at 70.5 h is -5.6%.
Regarding `Cc1nn(-c2ccccn2)c2c1C(c1cnn(C)c1)SCC(=O)N2` (stereo not given), the cytotoxicity at 70.5 h was -27.3%.
In the case of `Fc1cnc(N2CC[C@@H](N3CCOCC3)[C@@H]2Cc2ccncc2)nc1`, the cytotoxicity at 70.5 h is 15.9%.
The same measure for `CC(C)CN1CC[C@H](c2nnc(COc3ccc(F)cc3)o2)C1`: -3.77%; for `CC(C)N1CC(NC(=O)c2ccc(Cl)s2)CC1=O` (stereo not given): -6.6%; for `COCCn1cc2c(n1)C(CNS(C)(=O)=O)OCC2` (stereo not given): -2.51%.
As for `c1ncn(CC2CCCCN2Cc2csc(C3CCCC3)n2)n1` (stereo not given), the cytotoxicity at 70.5 h was 33.9%.
As to `CC(C)(O)c1cn(C[C@H]2C[C@@H]3CCN2C[C@@H]3C(=O)N2CCOCC2)nn1`, the cytotoxicity at 70.5 h is -1.36%.
Turning to `O=C(CCN1CCCC1c1ccccn1)N1CCc2ccccc2C1` (stereo not given), the cytotoxicity at 70.5 h was -16.1%.
Turning to `CC(c1ccccn1)N(C)Cc1cc2cc3c(cc2[nH]c1=O)OCO3` (stereo not given), the cytotoxicity at 70.5 h stood at 6.6%.
On to `Cc1n[nH]c(C2CN(C(=O)c3ccc4c(c3)CCCC4)CCO2)n1` (stereo not given), for which the cytotoxicity at 70.5 h was found to be 21%.
For `CC(O)CNc1ccc(C#N)cc1C(F)(F)F` (stereo not given), the cytotoxicity at 70.5 h was -12.9%.
The value for `CCOc1ncccc1NC(=O)N1CCN(c2ccc(O)cc2)CC1` was 1.58%.
For the compound `COCCn1c(CN2CCCCO2)cnc1S(=O)(=O)CC1CCCCC1`, the cytotoxicity at 70.5 h was -2.46%.
For `COc1ccc(N2CCC(N(C)C(=O)Nc3ccncc3)CC2)cc1`, the cytotoxicity at 70.5 h is 0.31%.
On to `O=C(CCn1ccc2ccc(Br)cc21)NCc1ccc(C(=O)O)cc1`, for which the cytotoxicity at 70.5 h is -21.2%.
In the case of `CCN(C)C[C@@H]1CN(S(=O)(=O)c2cccc(C#N)c2)C[C@@H]1CO`, the cytotoxicity at 70.5 h was -5.18%.
Regarding `Cc1noc(C(C)N2CCN(CCN3CCCC3=O)CC2)n1` (stereo not given), the cytotoxicity at 70.5 h is -4.25%.
For `Fc1cccc(-c2nc(CN3CCCC(Cn4cncn4)C3)co2)c1` (stereo not given), the cytotoxicity at 70.5 h was 16.1%.
The value for `O=C(c1cccnc1O)N(CCO)Cc1cc(Br)ccc1F` was -9.73%; that for `Cn1nccc1CN1CCOC(c2ccc(-c3cncnc3)cn2)C1` (stereo not given) was -6.28%.
As for `CCN1C(=O)C2(CCOCC2)c2cc(NC(=O)COC)ccc21`, the cytotoxicity at 70.5 h amounted to 14.9%.
Turning to `COc1ncccc1NC(=O)NCC1CCS(=O)(=O)C1` (stereo not given), the cytotoxicity at 70.5 h was -18.6%.
Consider `NC(=O)c1cnc(NC(=O)CCc2ccco2)c(Cl)c1`, for which the cytotoxicity at 70.5 h is -2.14%.
The same measure for `O=C(NCCCn1cncn1)c1ccc(-c2ccco2)[nH]c1=O`: -3.92%; for `CCC(C)(C)NC(=O)CN(Cc1cccc(O)c1)C1CCC(O)CC1` (stereo not given): -4.94%.
The value for `COc1ccc(CN2C[C@@H]3CC[C@H](C2)N(Cc2snnc2C)C3)cc1` was 49%.
For the compound `Cc1cc(C)cc(OCCC(=O)N2CCCC(n3cncn3)C2)c1` (stereo not given), the cytotoxicity at 70.5 h is -15.5%.
Turning to `CCNC(=O)c1ccc2c(c1)nc1n2CCN(Cc2ccco2)C1`, the cytotoxicity at 70.5 h was -16%.
The same measure for `CCc1nc(COc2ccc(OCc3cnn(C)c3)cc2)no1`: -2.52%.
Turning to `Cn1ccc(C(=O)N2CCCCC2c2cc(CCO)[nH]n2)n1` (stereo not given), the cytotoxicity at 70.5 h was -1.7%.
The value for `CNC(=O)CC1CCN(C(=O)Nc2ccc(-c3cc[nH]n3)cc2)CC1` was -4.66%.
Turning to `Cc1ccc(C(=O)N2CC(C(N)=O)O[C@H](C)C2)c(F)c1` (stereo not given in full), the cytotoxicity at 70.5 h is -0.939%.
In the case of `Cc1cccc(C(C(=O)N(C)Cc2ccco2)N(C)C)c1` (stereo not given), the cytotoxicity at 70.5 h worked out at 2.2%.
In the case of `Cc1nc(NC(=O)C2(C)CN(C)CCO2)sc1C` (stereo not given), the cytotoxicity at 70.5 h is -2.07%.
Consider `CC(C)c1nc(CCn2cncn2)n(-c2ccc3c(c2)OCCO3)n1`, for which the cytotoxicity at 70.5 h is -12.6%.
`O=C(NCCc1nccs1)c1n[nH]c2c1CCC2`: the cytotoxicity at 70.5 h was -11.1%.
With `Cc1nnc(CN(C)CCOc2cccc(Cl)c2)o1`, the cytotoxicity at 70.5 h was -10.9%.
As to `CCOCC(=O)N1CCC(c2nccn2Cc2cscn2)CC1`, the cytotoxicity at 70.5 h stood at 21.4%.
`COCCNC(=O)c1ccc2c(=O)n3c(nc2c1)CCCC3`: the cytotoxicity at 70.5 h is -2.97%.
Take `CCOCCNC(=O)[C@@H]1CCCN1c1nccc(Nc2ccccc2)n1`: the cytotoxicity at 70.5 h is -1.64%.
For the compound `COc1ccc(NCc2ccccc2N2CCN(C(C)=O)CC2)cn1`, the cytotoxicity at 70.5 h amounted to 0.712%.
Consider `O=C(CCc1nc(Cl)n[nH]1)N1CCC2(CCCNC2=O)C1` (stereo not given), for which the cytotoxicity at 70.5 h came out at 4.11%.
As to `CC(O)(CNc1ccc(Cl)c(C#N)n1)c1ccsc1` (stereo not given), the cytotoxicity at 70.5 h stood at 10.6%.
The value for `COc1cc(CNC(=O)NCc2c(C)cc(C)[nH]c2=O)ccc1C` was -8.93%; that for `COc1ccc(F)cc1C(=O)N1C[C@H]2C[C@H](OC)C[C@H]2C1` was -6.25%.
As to `CC(=O)NC1CCCN(C(=O)c2ccc(Br)cc2O)C1` (stereo not given), the cytotoxicity at 70.5 h is -8.57%.
The value for `COc1cc(C(C)NCc2scnc2C)ccc1SC(F)F` (stereo not given) was -9.67%.
Take `COc1ccc(C(C)NCc2ccc(OC)c(OC)c2OC)cc1F` (stereo not given): the cytotoxicity at 70.5 h was found to be 31.6%.
For `CCCS(=O)(=O)N1CCC2(CC(=O)N(c3cnn(C)c3)C2)C1` (stereo not given), the cytotoxicity at 70.5 h is -7.78%.
Turning to `CCS(=O)(=O)c1ccccc1N1CCC(NC(C)=O)CC1`, the cytotoxicity at 70.5 h is -4.79%.
The value for `CNC(=O)c1nnc2ccc(N3CCOCC3)cc2n1` was -4.03%.
In the case of `Cc1nc2c(c(=O)n1C)CCN(Cc1cc3ccccc3[nH]1)CC2`, the cytotoxicity at 70.5 h was 0.793%.
Take `Cn1c(CN2CCOCC2)nnc1C1CCCN(C(=O)CCC2CC2)C1` (stereo not given): the cytotoxicity at 70.5 h was -6.43%.
On to `Cc1ccc(OCc2occc2C(=O)N2CCOC(C(=O)O)C2)cc1` (stereo not given), for which the cytotoxicity at 70.5 h was found to be 11.5%.
As to `CCn1nccc1CNC(=O)C1CCCO1` (stereo not given), the cytotoxicity at 70.5 h was 0.767%.
For the compound `CNC(=O)[C@H]1C[C@@H]2CN(C(=O)c3ccc(C)o3)C[C@@H]2N1S(C)(=O)=O`, the cytotoxicity at 70.5 h was -9.33%.
For `Cc1noc(C)c1CN(Cc1ccccc1)C(C)C`, the cytotoxicity at 70.5 h worked out at 12.4%.
With `COc1ccc(C(=O)NS(C)(=O)=O)cc1-c1ccccc1`, the cytotoxicity at 70.5 h was -1.59%.
`Cn1ccnc1CN1CCN(CCOc2ccccc2F)CC1`: the cytotoxicity at 70.5 h was -11.2%.
The same measure for `CCCc1nc(C)c(C(=O)NC2CCN(c3ncccn3)CC2)s1`: -9.16%; for `O=C1COc2cc(OC[C@@H]3CCCN4CCCC[C@H]34)ccc21`: 14.3%.
The same measure for `CC(=O)N1CCC(C(=O)NCc2ncc(-c3ccccc3)o2)CC1`: -14.2%.
The same measure for `CN(Cc1nnc(-c2ccco2)o1)CC1CCCN1c1cccnn1` (stereo not given): 5.51%.
Turning to `CC(O)CN1CCC(CNCc2cccc(C(N)=O)c2)CC1` (stereo not given), the cytotoxicity at 70.5 h was -4%.
For the compound `CC[C@H]1CN(C(=O)c2ccc(-n3cnnc3)nc2)CC[C@@]1(C)O`, the cytotoxicity at 70.5 h was determined as 36%.
The value for `N#Cc1cn(CCCN2CCc3ccccc3C2)c(=O)[nH]c1=O` was -5.98%; that for `O=C(O)CCC(=O)Nc1nn(Cc2ccc(F)cc2)cc1Cl` was 27.9%.
Take `CCOC(C)c1noc(CN2CCN(Cc3cccnc3)CC2)n1` (stereo not given): the cytotoxicity at 70.5 h was 34.3%.
In the case of `CN(C)C(=O)c1cc2c(s1)CCN(C(=O)CCCN1CCCCC1)C2`, the cytotoxicity at 70.5 h is -6.61%.
Turning to `CC(C)CN1CC(O)CN(S(=O)(=O)c2ccccc2)CC1=O` (stereo not given), the cytotoxicity at 70.5 h is -10.6%.
In the case of `Cc1cnc(N)nc1NCCSCc1[nH]cnc1C`, the cytotoxicity at 70.5 h is -1.94%.
With `Cc1nc(C)n(CC2CCCN(CCC(=O)NC3CCCCC3)C2)n1` (stereo not given), the cytotoxicity at 70.5 h is -3.01%.
Take `CC(C)NC1CC2(CCNCC2)c2cc(F)ccc21` (stereo not given): the cytotoxicity at 70.5 h is -2.34%.
As to `CC1c2ncc(Cn3cccn3)n2CCN1c1ncccn1` (stereo not given), the cytotoxicity at 70.5 h was -8.84%.
`CC(C)N(Cc1nccn1C)C(=O)c1cc(Cl)c[nH]c1=O`: the cytotoxicity at 70.5 h was -6.81%.
In the case of `CNc1ncc(CN(C)C(=O)c2cccc(Cn3cccn3)c2)cn1`, the cytotoxicity at 70.5 h was -6.97%.
In the case of `COC(=O)N1CCCC(C(=O)N(C)C)C1` (stereo not given), the cytotoxicity at 70.5 h is -9.72%.
With `CC(C)c1noc(CS(=O)(=O)CC(=O)NCC(F)(F)F)n1`, the cytotoxicity at 70.5 h was -6.46%.
In the case of `OC(COCc1ccc(Cl)cc1)CN1CCC(c2ccn[nH]2)CC1` (stereo not given), the cytotoxicity at 70.5 h was -1.37%.
Regarding `Cc1nc(-c2ccc(Cl)s2)sc1C(=O)N(C)CC(N)=O`, the cytotoxicity at 70.5 h was 11.9%.
For `CC(NC(=O)NCCn1ccnc1)c1ccc2c(c1)CCC(=O)N2` (stereo not given), the cytotoxicity at 70.5 h turned out to be 13.7%.
On to `CN1CCOC(CNC(=O)CCc2cc(F)ccc2F)C1` (stereo not given), for which the cytotoxicity at 70.5 h is -4.57%.
For the compound `CCC(=O)N1CCC1c1cc(NC2CCCC2)nc(C)n1` (stereo not given), the cytotoxicity at 70.5 h is -2.68%.
With `CCc1ccc(C(=O)N2CCN(CCO)CC2)o1`, the cytotoxicity at 70.5 h was -1.18%.
Turning to `CCn1ccnc1CN1CCN(Cc2cccc(C#N)c2)CC1`, the cytotoxicity at 70.5 h was found to be 21.4%.
For the compound `CN1CCN(Cc2cnc3n2CCN(CCc2ccccc2)C3)CC1`, the cytotoxicity at 70.5 h stood at 19.5%.
With `CNc1cc(C)nc(-c2cc(NCCO)nc3[nH]ccc23)n1`, the cytotoxicity at 70.5 h was 11.9%.
The same measure for `c1csc(CN2CCCC3(COCCN(Cc4c[nH]nn4)C3)C2)c1` (stereo not given): 1.75%.
The same measure for `COCCC(Cc1cccc(Br)c1)C(=O)O` (stereo not given): -5.16%.
Turning to `N#Cc1c[nH]c(C(=O)N(Cc2ccc(O)cc2)CC2CC2)c1`, the cytotoxicity at 70.5 h is -2.25%.
With `N#CCSCCCN1CCN(C(=O)c2ccc(Cl)cc2)CC1`, the cytotoxicity at 70.5 h is 6.83%.
Consider `NC(=O)CN1CCC(C(=O)NCc2ccc3nonc3c2)CC1`, for which the cytotoxicity at 70.5 h was -14.2%.
With `Cc1ncsc1C(=O)NCCN1CCCCCC1=O`, the cytotoxicity at 70.5 h was -12.3%.
For `CCCc1nn(C2CCN(C3CC3)C2=O)c(=O)o1` (stereo not given), the cytotoxicity at 70.5 h was -5.48%.
As for `Cc1nonc1CC(=O)N1CCC2(CCCN(C3CCOCC3)C2=O)C1` (stereo not given), the cytotoxicity at 70.5 h is -5.27%.
Consider `CN(C)c1cnnc(N2CCN(C(=O)CCC3CCCCC3)CC2)c1`, for which the cytotoxicity at 70.5 h is -7.83%.
Consider `Cc1cnc(CN2CCN(C(C)c3nc(C(C)C)no3)CC2)cn1` (stereo not given), for which the cytotoxicity at 70.5 h was -6.56%.
For `Cc1ccc(N2CCCc3sc(C(=O)NCc4ccc(C)o4)nc32)nn1`, the cytotoxicity at 70.5 h is -6.21%.
For `COc1cc(-c2n[nH]c(CC#N)n2)cc(OC)c1OC`, the cytotoxicity at 70.5 h amounted to 51.6%.
